Several values for one entry are separate records, joined by “and”; a condition that tells them apart may be missing. Equal values may be shown once.
Assays:
[1] = target: DDD of the RII form of PKA (Homo sapiens, UniProt P13861); conditions: Alto et al. 2003; read-out: binding constant for DDD; cited from earlier work
[2] = irinotecan 125 mg/m^2 weekly×4, Q6W; cited from earlier work
RII isoform of PKA = RII isoform of PKA (Homo sapiens, UniProt P13861); conditions: Gold et al. 2006; cited from earlier work
Sequence of RII isoform of PKA (P13861 whole entry, canonical isoform): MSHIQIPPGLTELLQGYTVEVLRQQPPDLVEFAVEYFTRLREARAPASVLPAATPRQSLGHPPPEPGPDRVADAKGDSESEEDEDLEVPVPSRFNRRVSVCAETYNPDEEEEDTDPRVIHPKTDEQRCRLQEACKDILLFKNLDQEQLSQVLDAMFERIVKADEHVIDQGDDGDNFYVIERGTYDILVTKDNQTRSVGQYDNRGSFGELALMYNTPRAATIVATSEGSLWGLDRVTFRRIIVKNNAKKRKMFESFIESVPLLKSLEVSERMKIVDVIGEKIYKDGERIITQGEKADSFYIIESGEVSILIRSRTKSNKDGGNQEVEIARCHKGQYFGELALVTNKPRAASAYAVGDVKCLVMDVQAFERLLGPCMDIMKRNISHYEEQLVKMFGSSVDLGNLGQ

[3] = test system: patients with diverse metastatic cancers; assay: Phase I / phase II extension clinical trial of IMMU-132: best response, time to progression, case reports; type: in vivo, human
Experimental: In a 3+3 trial design, IMMU-132 was given on days 1 and 8 in repeated 21-day cycles, starting at 8 mg/kg/dose, then 12 and 18 mg/kg before dose-limiting neutropenia. To optimize cumulative treatment with minimal delays, phase II is focusing on 8 and 10 mg/kg (n=30 and 14, respectively). […] In the Phase I and the expansion phases, there are now 48 pts (excluding PDC) who are assessable by RECIST/CT for best response.
A total of 69 patients (including 25 patients in Phase I) with diverse metastatic cancers having a median of 3 prior therapies were reported. Eight patients had clinical progression and withdrew before CT assessment. Thirteen CT-assessable pancreatic cancer patients were separately reported.
A total of 48 patients with diverse cancers had at least 1 CT-assessment from which Best Response (not shown) and Time to Progression (TTP; not shown) were determined.

[4] = test system: Capan-1 human pancreatic tumor xenografts; assay: SN-38 delivery to tumor in nude mice bearing Capan-1 xenografts; type: in vivo
From the text: The present Example reports results from a phase I clinical trial and ongoing phase II extension with IMMU-132 (sacituzumab govitecan), an antibody-drug conjugate (ADC) of the internalizing, humanized, hRS7 anti-Trop-2 antibody conjugated by a pH-sensitive linker to SN-38 (mean drug-antibody ratio=7.6). Trop-2 is a type I transmembrane, calcium-transducing, protein expressed at high density (˜1×10^5), frequency, and specificity by many human carcinomas, with limited normal tissue expression.

[5] = human, in vivo
[6] = test system: stage IIIB NSCLC (squamous cell carcinoma); assay: Example 10: treatment of NSCLC patient after detection of Trop-2+ CTCs; type: in vivo, human; conditions: person
Experimental: A […]® system and Circulating Tumor Cell Kit are obtained Veridex LLC (Raritan, N.J.). A 7.5 ml blood sample is collected from a person with suspected NSCLC and stored in a CellSave tube (Veridex LLC). The anti-Trop-2 hRS7 antibody is substituted for the anti-EpCAM antibody provided with the […]® kit. The blood sample is mixed with magnetic nanoparticles conjugated to anti-Trop-2 antibody. Cells are stained with fluorescently labeled anti-CD45 and anti-CK antibodies and cell nuclei are fluorescently labeled with DAPI nuclear dye. A strong magnetic field is generated in the […]® system and used to separate cells bound to the magnetic nanoparticles, which are then analyzed by FISH to determine Trop-2 copy number, as described in Example 7 above.
Initial treatment of caboplatin/etoposide (3 mo) in concert with 7000 cGy XRT results in a response lasting 10 mo. The patient is then started on Tarceva maintenance therapy, which they continue until they were considered for IMMU-132 (hRS7-CL2A-SN-38) trial, in addition to undergoing a lumbar laminectomy. They receive the first dose of IMMU-132 after 5 months of Tarceva, presenting at the time with a 5.6-cm lesion in the right lung with abundant pleural effusion.

[7] = Phase I/II clinical trial of IMMU-132: related adverse events and dose reductions; type: in vivo, human
[8] = In vivo animal studies of SN-38 release from conjugate
[9] = Clinical pharmacokinetics of IMMU-132 in serum (ELISA, HPLC of SN-38); type: in vivo, human
Experimental: Two ELISA methods were used to measure the clearance of the IgG (capture with anti-hRS7 idiotype antibody) and the intact conjugate (capture with anti-SN-38 IgG/probe with anti-hRS7 idiotype antibody). SN-38 was measured by HPLC.

[10] = 48 pts (excluding PDC) assessable by RECIST/CT
[11] = all patients treated, 48 assessable
[12] = esophageal cancer, 4 assessable patients
[13] = starting dose 8 or 10 mg/kg, N = 123 patients

Sequence of DDD of the RII form of PKA (P13861 2-45 limits assumed): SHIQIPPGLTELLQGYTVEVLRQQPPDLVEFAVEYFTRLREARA

## QIEYLAKQIVDNAIQQA [AKAP-IS]
[1]
  Kd: 0.4 nM

## CCc1c2c(nc3ccc(OC(=O)N4CCC(N5CCCCC5)CC4)cc13)-c1cc3c(c(=O)n1C2)COC(=O)[C@]3(O)CC [irinotecan]
[2]
  incidence of grade ¾ diarrhea: 38%
  incidence of neutropenia: 31%
  incidence of neutropenic fever/infection: 8%

## QIEYVAKQIVDYAIHQA [SuperAKAP-IS]
RII isoform of PKA
  selectivity for the RII isoform of PKA compared with the RI isoform: five order of magnitude higher selectivity

## IMMU-132
[3]; 13 CT-assessable PDC pts
  PDC patients with SD: 62%
[3]; 13 CT-assessable pancreatic cancer patients, 8 wks in last prior therapy
  median time to progression (TTP) in PDC patients: 12.7 wks and 11.9 wks
[3]; [10]
  patients with disease response (total): 79%
  patients with partial response (PR): 15%
[3]; 48 pts excluding PDC
  TTP for the remaining 48 pts: ≥ 12.6 wks
[3]; CRC, 12/18
  total response [PR+SD]: 67%
[3]; CRC, 18 assessable patients
  PD: 6 patients
  PR: 1 patients
[3]; EAC, 16 assessable patients
  clinical benefit ratio (CR+PR+(SD≧4 mo)]): 44%
[3]; EAC, 16 assessable patients (2 patients)
  objective response: 13%
[3]; EAC, 16 assessable patients (9 patients)
  disease control: 56%
[3]; NSCLC, 5 assessable patients
  PD: 1 patients
  PR: 1 patients
[3]; NSCLC, 19 assessable patients
  clinical benefit ratio (CR+PR+(SD≧4 mo)]): 59%
[3]; NSCLC, 19 assessable patients (6 patients)
  objective response: 32%
[3]; NSCLC, 19 assessable patients (14 patients)
  disease control: 74%
[3]; NSCLC, ⅘
  total response [PR+SD]: 80%
[3]; SCLC, 2/4
  total response [PR+SD]: 50%
[3]; SCLC, 4 assessable patients
  PD: 2 patients
  PR: 2 patients
[3]; SCLC, 20 assessable patients
  clinical benefit ratio (CR+PR+(SD≧4 mo)]): 55%
  clinical benefit ratio (CR+PR+(SD≧6 mo)]): 37%
[3]; SCLC, 20 assessable patients (6 patients)
  objective response: 30%
[3]; SCLC, 20 assessable patients (11 patients)
  disease control: 55%
[3]; TNBC, 6/8
  total response [PR+SD]: 75%
[3]; TNBC, 8 assessable patients
  PD (progressive disease): 2 patients
  PR (partial response): 2 patients
[3]; TNBC, 46 assessable patients
  clinical benefit ratio (CR+PR+(SD≧4 mo)]): 63%
  clinical benefit ratio (CR+PR+(SD≧6 mo)]): 46%
[3]; TNBC, 46 assessable patients (12 patients)
  objective response: 26%
[3]; TNBC, 46 assessable patients (34 patients)
  disease control: 74%
[3]; all patients treated, 34/48
  total response [PR+SD]: 71%
[3]; [11]
  PD: 14 patients
  PR: 7 patients
[3]; [12]
  PD: 1 patients
  PR: 1 patients
[3]; esophageal cancer, ¾
  total response [PR+SD]: 75%
[3]; person with CRC, after 10 months of treatment
  maximum reduction in target lesions: 65%
[3]; person with CRC, decrease from 781 ng/mL
  CEA after treatment: 26.5 ng/mL
[3]; person with CRC, starting dose 8 mg/kg
  reduction in target lesions at first CT assessment: 37%
[3]; person with SCLC, 12 mg/kg reduced to 6.8 mg/kg, after two months
  reduction in target lesions: 38%
[3]; person, stage IIIB NSCLC, after 6th dose, 5.6 cm lesion at start
  primary target lesion size at first CT: 3.2 cm
[4]
  SN-38 delivered to tumor relative to maximally tolerated irinotecan therapy: ≤ 136 fold
[5]
  anti-hRS7 or anti-SN-38 antibodies: No anti-hRS7 or anti-SN-38 antibodies were detected
  antibody response to IMMU-132: no evidence of an antibody response
[6]; NSCLC, periodic assays
  Trop-2+ CTC number following treatment: substantial reduction
[6]; stage IIIB NSCLC, after 6th dose, 5.6-cm lesion at start
  primary target lesion size at first CT: 3.2 cm
[7]; human, in vivo
  alopecia: 40%
  diarrhea: 47%
  diarrhea ≧G3: 9%
  fatigue: 55%
  fatigue ≧G3: 9%
  nausea: 53%
  nausea ≧G3: 0%
  neutropenia G4: 4%
  neutropenia ≧G3: 28%
  vomiting: 32%
  vomiting ≧G3: 2%
[7]; human, in vivo, 8 mg/kg
  patients provided with a dose reduction: 16%
[7]; human, in vivo, 10 mg/kg
  patients provided with a dose reduction: 15%
[7]; human, in vivo, 12 mg/kg
  patients provided with a dose reduction: 67%
[7]; human, in vivo, 18 mg/kg
  patients provided with a dose reduction: 100%
[7]; [13]
  Urinary Tract Infection, Grade 3: 1 (1%) patients (%)
  Urinary Tract Infection, Grade 4: 0 patients (%)
[8]
  SN-38 released daily: 50%
[9]; ELISA
  clearance of total IMMU-132 fraction (intact conjugate) vs IgG: cleared more quickly than the IgG
[9]; HPLC, unbound and total SN-38, non-glucoronidated form
  SN-38 in the serum bound to the IgG: > 95%
[9]; human, in vivo
  serum SN-38 concentration relative to SN-38 reported in patients given irinotecan: ≤ 100 fold
[9]; patients
  time for conjugate to clear from the serum: ≤ 3 days
[9]; serum, HPLC
  concentrations of SN-38G: Low concentrations

## CC[C@@]1(O)C(=O)OCc2c1cc1n(c2=O)Cc2cc3c(CN(C)C)c(O)ccc3nc2-1 [topotecan, reference compound]
[3]; person with SCLC, therapy ended after 2 months
  response to prior therapy: no response
